melting point [°C] | Structure (SMILES)
137 to 138 | COc1cc2c(cc1OC)C1CCC(O)CC1N=C2c1ccc(OCC2CC2)c(OCC2CC2)c1 (racemic) [Compound 3, (±)-(3RS,4aRS,10bRS)-6-(3,4-Bis-cyclopropylmethoxyphenyl)-8,9-dimethoxy(1,2,3,4,4a,10b)-hexahydrophenanthridin-3-ol]
172.5 to 174 | COc1cc2c(cc1OC)[C@H]1CC[C@H](O)C[C@H]1N=C2c1ccc(OCC2CC2)c(OCC2CC2)c1 (racemic) [Compound 4, (±)-(3SR,4aRS,10bRS)-6-(3,4-Bis-cyclopropylmethoxyphenyl)-8,9-dimethoxy-1,2,3,4,4a,10b-hexahydrophenanthridin-3-ol]
